Source: PubChem BioAssay (NCI)
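All cell lines were grown in 96-well plates and treated with compound for 48 hours. TGI marks complete inhibition of growth.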

What was measured:
Test in all cases: inhibition of tumour cell growth, NCI panel, 48 h
ACHN renal = system: ACHN renal
HOP-62 NSCLC = system: HOP-62 NSCLC
A549 NSCLC = system: A549 NSCLC
NCI-H522 lung = system: NCI-H522 lung
T-47D breast = system: T-47D breast
MOLT-4 leukemia = system: MOLT-4 leukemia
NCI-H226 lung = system: NCI-H226 lung
EKVX NSCLC = system: EKVX NSCLC
OVCAR-4 ovarian = system: OVCAR-4 ovarian
SNB-75 CNS = system: SNB-75 CNS
SW-620 colon = system: SW-620 colon
SK-OV-3 ovarian = system: SK-OV-3 ovarian
A498 renal = system: A498 renal
HT29 colon = system: HT29 colon
HCT-15 colon = system: HCT-15 colon
IGROV1 ovarian = system: IGROV1 ovarian
SK-MEL-5 melanoma = system: SK-MEL-5 melanoma
K-562 leukemia = system: K-562 leukemia
MDA-MB-231 breast = system: MDA-MB-231 breast

| SMILES | TGI (ACHN renal) | TGI (HOP-62 NSCLC) | TGI (A549 NSCLC) | TGI (NCI-H522 lung) | TGI (T-47D breast) | TGI (MOLT-4 leukemia) | TGI (NCI-H226 lung) | TGI (EKVX NSCLC) | TGI (OVCAR-4 ovarian) | TGI (SNB-75 CNS) | TGI (SW-620 colon) | TGI (SK-OV-3 ovarian) | TGI (A498 renal) | TGI (HT29 colon) | TGI (HCT-15 colon) | TGI (IGROV1 ovarian) | TGI (SK-MEL-5 melanoma) | TGI (K-562 leukemia) | TGI (MDA-MB-231 breast) |
| --- | --- | --- | --- | --- | --- | --- | --- | --- | --- | --- | --- | --- | --- | --- | --- | --- | --- | --- | --- |
| O=C(O)Cc1ccc(Nc2nc3ccccc3nc2C(=O)O)cc1 | > 100 µM | > 100 µM | > 100 µM | > 100 µM | > 100 µM | > 100 µM | > 100 µM | > 100 µM | > 100 µM | > 100 µM | > 100 µM | > 100 µM | > 100 µM | > 100 µM | > 100 µM | > 100 µM | > 100 µM |  |  |
| Cc1ccc(/C=C/C(=N/NC(=O)N/N=C(/C=C/c2ccc(C)cc2)C(C)C)C(C)C)cc1 | > 10 µM | > 10 µM | > 10 µM | > 10 µM |  | > 10 µM | > 10 µM | > 10 µM | 2.88 µM |  | > 10 µM |  |  | > 10 µM | > 10 µM |  |  | > 10 µM | > 10 µM |
| C=C1CCCC(C)(C)[C@H]1C/C=C1\CCOC1=O | 29.4 µM | 39.9 µM | 26.6 µM | 40.4 µM | > 100 µM | 38.9 µM | 24.9 µM | 30 µM | 26.8 µM |  | 35.2 µM | 57 µM | 31 µM | 28 µM | > 100 µM | 28.8 µM | 21.8 µM | 26.5 µM | 31.6 µM |
| O/N=C(/C(Cl)=C(Cl)Cl)C(Cl)Cl | 32 µM | 46.9 µM | > 100 µM |  |  | 37.1 µM | > 100 µM | > 100 µM | 30.3 µM | 43.7 µM | 38.8 µM | 74.7 µM | > 100 µM | 30.3 µM | 33.5 µM | 44.6 µM | 40.3 µM | 38 µM | 40 µM |
| [N-]=[N+]=NC1(c2ccccc2)C(=O)C(Cl)=C(c2ccccc2)N(c2ccccc2)C1=O (stereo not drawn) | > 100 µM | > 100 µM | > 100 µM | > 100 µM |  | > 100 µM |  | > 100 µM | > 100 µM | > 100 µM | > 100 µM | 78.6 µM | > 100 µM | > 100 µM | > 100 µM | > 100 µM | > 100 µM | > 100 µM |  |
| Cc1c2n(c3ccccc13)S(=O)(=O)c1ccccc1-2 | 43 µM |  | > 100 µM | > 100 µM |  | > 100 µM | > 100 µM | 35.6 µM | > 100 µM |  | > 100 µM | 31.6 µM | 27.4 µM | 35.6 µM | > 100 µM | > 100 µM | > 100 µM | > 100 µM | 39.4 µM |
| CC(C)(C)C1CCC2c3c([nH]c4ncccc34)C3C(=O)N(c4ccccc4)C(=O)C3C2C1 (stereo not drawn) | > 100 µM | > 100 µM | > 100 µM | > 100 µM |  | > 100 µM | > 100 µM | > 100 µM | > 100 µM | > 100 µM | > 100 µM | > 100 µM |  | > 100 µM | > 100 µM | > 100 µM | > 100 µM | > 100 µM |  |
